Results published in US20230241046A1, “SOLID DISPERSION OF OPICAPONE” (BIAL - PORTELA & CA, S.A., priority 2020, published 2023).

Key:
[1] = Particle size distribution (circle equivalent diameter) by SEM; type: physicochemical; details: particle size distribution (equivalent circular diameter) after micronisation, MC JETMILL 200
Description: A Phenom Pro-X Electron microscope (PhenomWorld, Thermo Fisher Scientific, USA) equipped with a CeB6 electron source and backscatter electron detector was used to determine the morphology and particle size of the samples.
The powder was placed on conductive adhesive tape. The holder for non-conductive samples was used. The excess of sample (loosely bound to the tape) was removed using compressed air.
Particle morphology was assessed by Automated Image Mapping software and particle size determination was made by Particlemetric software.

[2] = In vivo pharmacokinetics after oral administration; details: male Wistar rats, 3 mg/kg of opicapone, plasma
Description: The pharmacokinetics of solid dispersions of amorphous opicapone were evaluated in male Wistar rats, after oral administration of Sample 1, 4 or 6, or a control sample of micronised crystalline opicapone, at a dose of 3 mg/kg of opicapone. The exposure of these solid dispersions, formulated as a HPMC suspensions (50 mg of opicapone per 100 mL of 0.2% HPMC), were compared with the exposure of micronised crystalline opicapone, at a dose of 3 mg/kg of opicapone.
During the studies, blood was collected at different time points, from tail vein, spun at 1500×g in a refrigerated centrifuge (4° C.) for 15 min, and the plasma obtained was stored at −80° C. until further analysis. The plasma samples collected from twenty animals (140 samples), were analysed for opicapone exposure. The bioanalysis involved the use of LC-MS/MS after plasma precipitation.

[3] = Fasted state simulated gastric fluid (FaSSGF) kinetic solubility assay; type: physicochemical; details: kinetic solubility in FaSSGF, 0-24 h
Description: (§1) The content of opicapone in kinetic solubility studies was analysed by HPLC coupled to a UV/Vis detector (Waters series, USA). A C18 column was used. The mobile phase consisted of 0.1% o-phophoric acid and acetonitrile (68:32 v/v).
Kinetic solubility studies on the opicapone solid dispersion were performed at room temperature at a loading equivalent to˜10 mg of opicapone per mL of FaSSGF, in a total of 5 mL of medium. Samples were tested at 0, 0.5, 1, 2, 4 and 24 hours (Klein, AAPS J., 2010, 12, 397-406).
(§2) Area under the Concentration Curve (AUC), Cmax and other pharmacokinetic parameters were calculated using GraphPad Prism 7 for Windows (GraphPad Software, USA).

[4] = Fasted state simulated intestinal fluid (FaSSIF) kinetic solubility assay; type: physicochemical; details: kinetic solubility in FaSSIF, 0-24 h
Description: as §1
Kinetic solubility studies on the opicapone solid dispersion were performed at room temperature at a loading equivalent to˜75 mg of opicapone per mL of FaSSIF, in a total of 5 mL of medium. Samples were tested at 0, 0.5, 1, 2, 4 and 24 hours (Klein, AAPS J., 2010, 12, 397-406).
as §2

D10 [1]: ≥ 4 μm
D50 [1]: 10-40 μm
D95 [1]: ≤ 80 μm
tlast [2]: 8 h
AUC(0-t) ([2]; rat): 1.4 µg·h/mL
Cmax ([2]; rat): 379 ng/mL
tmax ([2]; rat): 2 h
concentration at 8 h ([2]; rat, read-out: Clast): 78.6 ng/mL
AUC ([3]; Experiment 1): 7.625 µg·h/mL
Cmax ([3]; Experiment 1): 300 ng/mL
AUC ([3]; Experiment 2): 5.75 µg·h/mL
Cmax ([3]; Experiment 2): 300 ng/mL
tmax ([3]; Experiment 2): 24 h
AUC ([3]; Experiment 3): 5.86 µg·h/mL
Cmax ([3]; Experiment 3): 260 ng/mL
tmax ([3]; Experiment 3): 24 h
tmax ([4]; room temperature, Experiment 1): 24 h
AUC ([4]; Experiment 1): 1589 µg·h/mL
Cmax ([4]; Experiment 1): 69000 ng/mL
AUC ([4]; Experiment 2): 1310 µg·h/mL
Cmax ([4]; Experiment 2): 86000 ng/mL
tmax ([4]; Experiment 2): 2 h
AUC ([4]; Experiment 3): 1400 µg·h/mL
Cmax ([4]; Experiment 3): 89000 ng/mL
Compound: Cc1c(Cl)c(C)[n+]([O-])c(Cl)c1-c1noc(-c2cc(O)c(O)c([N+](=O)[O-])c2)n1 [Opicapone Control, opicapone]
